Test results published in article PMC9572541, “Design, Synthesis and Biological Evaluation of Novel and Potent Protein Arginine Methyltransferases 5 Inhibitors for Cancer Therapy” (Molecules, 2022).

Experiments:
AML-12 hepatocytes = test: Toxicity on normal AML-12 hepatocytes; assay type: cell-based; details: Mus musculus, AML12; for inhibition at 10 µM: read-out: AML-12 Inhibition Rate% @10 μM; for inhibition at 20 µM: read-out: AML-12 Inhibition Rate% @20 μM
Excerpt: (§1) MV-4-11 and MDA-MB-468 cell lines were used to evaluate the anti-proliferative activities of the selected target compounds (CellTiter-Glo assay), and AML-12 hepatocytes were selected to evaluate the toxicity of the compounds.
MV-4-11 and MDA-MB-468 cell line were derived from Cell Resources Center of Shanghai Academy of life sciences (Shanghai, China). AML-12 cell line was brough from Nanjing Lixing Biotechnology Co. Ltd. (Nanjing, China). MDA-MB-468 cell line was maintained in Dulbecco’s Modified Eagle Medium (DMEM, KeyGEN Bio) that contained 10% FBS (Biochanel, China), MV-4-11 cell line was maintained in Iscove’s Modified Dulbecco Medium containing; 10% FBS (Biochannel, China), AML-12 cell line was maintained in DMEM/F-12 (1:1) (KeyGEN, China; 1% ITS Liquid Media Supplement (Sigma, America), dexamethasone 40 ng/mL (Sigma, USA) and 10% FBS (Biochannel, China). All cells were grown in a humidified incubator containing 5% carbon dioxide at 37 ℃. All compounds were dispersed in dimethyl sulfoxide (Sigma), the concentration of the reserve solution was 10 mmol/L and the solution was stored in a refrigerator at −20 ℃. SDMA (# 13222S), β- Tubulin (#2146S) and horseradish peroxidase (HRP)-linked secondary antibodies anti-rabbit or anti-mouse IgG were purchased from Cell Signaling Technology (CST), and the anti-PRMT5 (ab109451) antibody was purchased from ABCAM. […]

MDA-MB-468 cells = test: Anti-proliferation CellTiter-Glo assay, MDA-MB-468; assay type: cell-based; details: Homo sapiens
Excerpt: as §1
(§2) MV-4-11 and MDA-MB-468 cell line were derived from Cell Resources Center of Shanghai Academy of life sciences (Shanghai, China). AML-12 cell line was brough from Nanjing Lixing Biotechnology Co. Ltd. (Nanjing, China). MDA-MB-468 cell line was maintained in Dulbecco’s Modified Eagle Medium (DMEM, KeyGEN Bio) that contained 10% FBS (Biochanel, China), MV-4-11 cell line was maintained in Iscove’s Modified Dulbecco Medium containing; 10% FBS (Biochannel, China), AML-12 cell line was maintained in DMEM/F-12 (1:1) (KeyGEN, China; 1% ITS Liquid Media Supplement (Sigma, America), dexamethasone 40 ng/mL (Sigma, USA) and 10% FBS (Biochannel, China). All cells were grown in a humidified incubator containing 5% carbon dioxide at 37 ℃. All compounds were dispersed in dimethyl sulfoxide (Sigma), the concentration of the reserve solution was 10 mmol/L and the solution was stored in a refrigerator at −20 ℃. SDMA (# 13222S), β- Tubulin (#2146S) and horseradish peroxidase (HRP)-linked secondary antibodies anti-rabbit or anti-mouse IgG were purchased from Cell Signaling Technology (CST), and the anti-PRMT5 (ab109451) antibody was purchased from ABCAM.
(§3) The antiproliferative activities of compounds in vitro were measured by CellTiter-Glo (CTG) assay (Promega, America). In linear/log-phase growth, cultured MV-4-11 cells were split to with seeding density of 2 × 10^5 cells/mL in 1–20 mL of media, depending on the yield required at the end of the growth period. At the conclusion of each treatment period, cells were harvested by centrifugation (4 min, 1000 rpm), and cell pellets were rinsed twice with PBS before being research further processing. Afterwards, cells were plated in 96-well plates with a density of 500 cells/well in […] media. After six hours incubation, compounds treatment was performed. Half of the culture medium was moved and re-plated with fresh media with fresh compound after 6 days. On the 12th day, Cell Titer-Glo Luminescent Cell Viability assays (Promega, USA) were used to determine the viable cell number, and luminescence was recorded using the Envision Multilabel Plate Readers (PerkinElmer). The concentration dependence curves were determined at each time point using GraphPad Prism 8.0 software.

MV-4-11 cells = test: Anti-proliferation CellTiter-Glo assay, MV-4-11; assay type: cell-based; details: Homo sapiens, MV4-11, 12th day
Excerpt: as §1, §2, §3

PRMT5 = target: T1, PRMT5 (Homo sapiens, UniProt O14744); test: PRMT5 enzymatic activity inhibition assay (radioactive methylation, 3H-SAM to H4R3 peptide); assay type: biochemical; details: for inhibition at 0.1 µM: 100 nM compound, read-out: Inhibition Rate% @100 nM
T1 construct: The final concentrations of PRMT5 enzyme: 2.5 nm/L
T1 sequence (O14744 whole entry): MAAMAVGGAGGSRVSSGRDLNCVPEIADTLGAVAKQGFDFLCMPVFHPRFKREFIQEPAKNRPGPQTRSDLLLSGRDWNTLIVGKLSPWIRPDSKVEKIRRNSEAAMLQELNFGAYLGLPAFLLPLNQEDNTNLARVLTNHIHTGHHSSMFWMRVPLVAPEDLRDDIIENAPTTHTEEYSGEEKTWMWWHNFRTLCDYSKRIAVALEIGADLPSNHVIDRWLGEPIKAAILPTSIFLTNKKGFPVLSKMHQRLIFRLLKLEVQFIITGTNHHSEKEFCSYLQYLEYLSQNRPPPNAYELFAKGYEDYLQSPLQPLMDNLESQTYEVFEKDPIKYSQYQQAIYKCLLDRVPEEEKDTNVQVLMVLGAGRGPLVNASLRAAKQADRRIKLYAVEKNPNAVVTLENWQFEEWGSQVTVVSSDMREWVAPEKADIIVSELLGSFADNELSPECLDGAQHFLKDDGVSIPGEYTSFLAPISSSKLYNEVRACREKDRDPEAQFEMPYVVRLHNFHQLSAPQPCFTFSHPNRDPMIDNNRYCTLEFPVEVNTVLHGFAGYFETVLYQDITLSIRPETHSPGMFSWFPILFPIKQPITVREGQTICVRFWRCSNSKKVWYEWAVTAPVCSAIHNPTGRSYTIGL
T1 sequence (Q9BQA1 whole entry partner): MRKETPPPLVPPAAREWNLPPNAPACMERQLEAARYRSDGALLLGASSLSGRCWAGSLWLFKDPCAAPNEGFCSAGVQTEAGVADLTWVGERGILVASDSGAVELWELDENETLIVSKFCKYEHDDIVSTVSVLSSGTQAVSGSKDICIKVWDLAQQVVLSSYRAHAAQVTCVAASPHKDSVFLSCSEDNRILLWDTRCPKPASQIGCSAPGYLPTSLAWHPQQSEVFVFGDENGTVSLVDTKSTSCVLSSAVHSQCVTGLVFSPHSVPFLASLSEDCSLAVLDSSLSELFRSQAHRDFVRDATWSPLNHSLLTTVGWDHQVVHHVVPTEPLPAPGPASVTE
Method: The PRMT5 enzymatic activity assay was conducted by Chempartner Life science. The final concentrations of PRMT5 enzyme: 2.5 nm/L; ^3H-SAM: 0.3 μM/L; histone peptide (H4R3S1ac): 0.3 μM/L. The protocol of radioactive methylation assay was as follows: (1) Prepare 1× assay buffer (modified Tris Buffer). (2) Transfer compounds to assay plate using Echo in 100% DMSO. DMSO’s final fraction is 1%. (3) Prepare enzyme and ^3H-SAM Mix solution in 1× assay buffer. (4) Prepare substrate (peptide sequence Ac-[…]-K(Biotin)) solution in 1× assay buffer. (5) Transfer 15 μL of enzyme and ^3H-SAM solution to assay plate. (6) Incubate at room temperature for 60 min. (7) Add 10 μL of substrate solution to each well to start the reaction, and for low control transfer 10 μL of 1× assay buffer. (8) Incubate at room temperature for 120 min. (9) Add cold SAM in 1× assay buffer to make the stop mix. (10) Stop reaction with addition of 5 µL per well of stop solution. (11) Transfer 25 µL of volume per well to Flash plate from assay plate. (12) Incubate for 1 h minimum at room temperature.
(13) Read plate on Micro beta. (14) Data process—get the data in Excel to obtain inhibition values using Equation (1).Inhibitory rate% = (Max-Signal)/ (Max-Min) × 100(1)
Fit the data in XL-Fit to obtain IC50 values using Equation (2): Y = Bottom + (Top-Bottom)/(1 + (IC50/X) […]) Y is% inhibition and X is compound concentration(2)

[1] = no reference given; cited from earlier work
MV-4-11 xenograft = MV-4-11 xenograft mouse model; assay type: in vivo, BALB/c nude mice; details: 10 mg/kg, twice daily (BID), 28 days
Method: Based on the excellent enzymatic and anti-proliferative activities of compound 20 in vitro, we then evaluated antitumor activities in vivo in an MV-4-11 xenograft mouse model.
Male BALB/c nude mice (6–8 weeks old) were purchased from Hangzhou Medical College. All animals were housed in a specific pathogen-free facility. MV-4-11 cells (5 × 10^6) suspended in 0.2 mL of PBS were inoculated subcutaneously on the right flank of each BALB/c nude mouse. Mice were divided randomly (5 mice for each group) into two treatment groups and a control group when the size of the tumors reached 150 mm^3. […] The tumor volume and body weight were measured every 2 days. The tumor volume was determined with Vernier calipers and calculated as follows: tumor volume = a × b^2/2, where a and b stand for the longest and shortest diameters measured by the vernier caliper, respectively. All animal experiments have been approved by Pharmaceutical Experiment Center of China Pharmaceutical University.
(A) The resulting tumors excised from the animals after treatment. […] (C) The nude mouse body weight was measured every 2 days. (D) The tumor volumes of the nude mice were measured and calculated once every 2 days.

Row | Compound | inhibition at 10 µM (AML-12 hepatocytes) [%] | inhibition at 20 µM (AML-12 hepatocytes) [%] | GI50 (MDA-MB-468 cells) [nM] | GI50 (MV-4-11 cells) [nM] | inhibition at 0.1 µM (PRMT5) [%] | IC50 (PRMT5) [nM] | adverse events in clinical studies [1] | TGI (MV-4-11 xenograft) [%]
1 | O=C(NC[C@H](O)CN1CCc2ccccc2C1)c1ccc2[nH]c3c(c2c1)CCCCCC3 [Compound 10, (S)-N-(3-(3,4-dihydroisoquinolin-2(1H)-yl)-2-hydroxypropyl)-6,7,8,9,10,11-hexahydro-5H-cycloocta[b]indole-2-carboxamide] | 97.9 ± 1.2 | 100.7 ± 0.1 | 126 ± 70.9 | 42.4 ± 2.6 | 71 ± 1.3 | – | – | –
2 | CCn1c2c(c3cc(C(=O)NC[C@H](O)CN4CCc5ccccc5C4)ccc31)CCCC2 [Compound 14, (S)-N-(3-(3,4-dihydroisoquinolin-2(1H)-yl)-2-hydroxypropyl)-9-ethyl-2,3,4,9-tetrahydro-1H-carbazole-6-carboxamide] | -67 ± 11.3 | 17.7 ± 3.5 | 286 ± 5.9 | 29.7 ± 12.8 | 81 ± 3.2 | 8.8 ± 0.4 | – | –
3 | O=C(NC[C@H](O)CN1CCc2ccccc2C1)c1ccc2[nH]c3ccccc3c2c1 [Compound 1, (S)-N-(3-(3,4-dihydroisoquinolin-2(1H)-yl)-2-hydroxypropyl)-9H-carbazole-3-carboxamide] | 16.7 ± 10.4 | 97.5 ± 0.1 | 552 ± 33 | 271 ± 152 | 73 ± 0.7 | 13 ± 8.9 | – | –
4 | CC(=O)N1CCC(Nc2cc(C(=O)NC[C@H](O)CN3CCc4ccccc4C3)ncn2)CC1 [GSK-3326595, reference compound] | 22.9 ± 3 | 26.5 ± 2 | 37.3 ± 3 | 9.3 ± 2.8 | – | – | grade 3 or 4 adverse events | 39.3
5 | O=C(NC[C@H](O)CN1CCc2ccccc2C1)c1ccc2[nH]c3c(c2c1)CCCC3 [Compound 7, (S)-N-(3-(3,4-dihydroisoquinolin-2(1H)-yl)-2-hydroxypropyl)-2,3,4,9-tetrahydro-1H-carbazole-6-carboxamide] | 46.4 ± 3.7 | 98.4 ± 0.7 | > 250 | 54.1 ± 20.5 | 75 ± 0.7 | 18.6 ± 0.9 | – | –
6 | O=C(NC[C@H](O)CN1CCc2ccccc2C1)c1ccc2c(c1)c1c(n2CC2CCC2)CCCC1 [Compound 19, (S)-9-(cyclobutylmethyl)-N-(3-(3,4-dihydroisoquinolin-2(1H)-yl)-2-hydroxypropyl)-2,3,4,9-tetrahydro-1H-carbazole-6-carboxamide] | 32.9 ± 5.4 | 100.2 ± 0.9 | 99.1 ± 8.3 | 16 ± 2.3 | 80 ± 1 | 7.5 ± 0.3 | – | –
